Assay results from patent US20260217701A1, “SELECTIVE BET INHIBITORS AND USES THEREOF” (Tay Therapeutics Limited, priority 2022, published 2026).
Several values for one entry are separate records, joined by “and”; a condition that tells them apart may be missing. Equal entries are not always repeated.

Experiments:
BRD4 BD2 = biological target: T1, BRD4 BD2 (Homo sapiens, UniProt O60885); assay: NanoBRET bromodomain assay, NanoLuc-BRD4-BD2 in HEK293 cells; assay type: binding; details: nanoBRET assay, given as symbol only
T1 construct: HEK293 cells were transfected using NanoLuc-BRD4-BD1 or NanoLuc-BRD4-BD2 fusion vectors
Procedure: Plates were then incubated at 37° C.+5% CO2 incubator for 2 hours.
Fold Selectivity Calculated (IC50 BD1/IC50 BD2).

[1] = test system: imiquimod-induced psoriasis; assay: Imiquimod-induced psoriasis model; assay type: in vivo, mice; parameters: Spleen Weight / Spleen Weight Ratio: unit not given here; details: for PASI Scores: IMI + Clobetasol 0.05%; for Mean scores of the presence of erythema on the skin of animals at the area of induction of psoriasis / Mean scores of the presence of induration on the skin of animals at the area of induction of psoriasis / Mean scores of the presence of peeling on the skin of animals at the area of induction of psoriasis: mean ± SEM
Excerpt: Imiquimod-induced psoriasis is a model of psoriasis in mice that induces psoriasis-like dermatitis. The pathology closes resembles human plaque-type psoriasis and is a valuable tool for testing new therapies against psoriasis. […] Compound A was formulated in a 5% DMSO/40% PEG-400/55% (0.9% NaCl w/v water) solution (Table 2F). Experimental groups for the study are outlined in Table 4. Prior to study initiation, the backs of all animals in the study were depilated to allow for induction of psoriasis and monitoring of disease progression.
Once assigned to experimental groups, on Day 1 and continuing through Day 14, topical imiquimod (IMI; Aldara™ containing 5% Imiquimod) was administered to the dorsal depilated animals, and animals in group 1 received topical administration of Excipial® hydrocream (65 mg). […] Clobetasol was applied topically for animals in group 11.
Body weights were recorded three times a week from Day 1 to Day 8, and daily from Day 8 until the study end at Day 15. At termination on D15 the spleen weight ratio was determined. Disease severity was assessed using the psoriasis area severity index (PASI) daily from Day 8 until study completion on Day 15. The PASI score was calculated based on three parameters (presence of erythema, induration of the skin, and peeling of the skin at the area of induction) on a scale of 0 to 4 (0=no more or absence, 1=low, 2=moderate, 3=high, 4=severe). The PASI score for each animal was calculated as the sum of the score of each parameter measured. The score of the use of enrichment (SUE) was also assessed daily from Day 8 to Day 15. At study completion on Day 15, animal behavior was evaluated using an open field to assess distance travelled, number scratching, and licking and rearing performed in 10 minutes. Upon study termination animals were sacrificed, the spleen was excised and weighed, and blood samples were collected. Serum was isolated from the blood sample for cytokine and other biomarker analysis. IL-1B, IL-6, IL-17, and TNF-α assayed using simple plex technique on an ELLA automated immunoassay system. IL-22 and IL-23 were assayed by ELISA.
The imiquimod-induced model of psoriasis was used to assess the efficacy of Compound A in treating psoriasis. […] Treatment started on Day 8 after induction so reference to day 1 of treatment is to Day 8 and day 7 of treatment is to Day 14.

[2] = IMI-psoriasis model, behavioral evaluation D15, 0.05%, individual animals
[3] = IMI-psoriasis model, behavioral evaluation, 0.05%, individual animals
[4] = IMI-psoriasis model, mice, 0.05%, individual animals
[5] = IMI + 0.05%, D8 (before start of treatment)

Cn1cc(-c2ccccc2)c(-c2cn(C)c(=O)c3[nH]c(-c4cnn(C(F)(F)F)c4)c(F)c23)cc1=O [Compound D, 3-fluoro-6-methyl-4-(1-methyl-2-oxo-5-phenyl-1,2-dihydropyridin-4-yl)-2-(1-(trifluoromethyl)-1H-pyrazol-4-yl)-1,6-dihydro-7H-pyrrolo[2,3-c]pyridin-7-one]
Selectivity (BD1/BD2) (BRD4 BD2; higher number denotes higher selectivity): >>>>
BD2 (BRD4 BD2; lower number denotes higher potency): <

C[C@H]1C[C@H]2[C@@H]3CCC4=CC(=O)C=C[C@]4(C)[C@@]3(F)[C@@H](O)C[C@]2(C)[C@@]1(O)C(=O)CCl [Clobetasol, reference compound]
Body Weight D1 ([1]; IMI + 0.05%, Day 1 (before treatment start on Day 8), individual animals): 17.07 and 17.52 and 19.31 and 18.57 and 18.72 and 16.56 and 17.64 and 16.77
Body Weight D3 ([1]; IMI + 0.05%, Day 3 (before treatment start on Day 8), individual animals): 14.93 and 16.02 and 17.76 and 17.57 and 17.77 and 14.09 and 14.81 and 14.86
Body Weight D5 ([1]; IMI + 0.05%, Day 5 (before treatment start on Day 8), individual animals): 16.15 and 15.56 and 18.21 and 17.74 and 16.72 and 15.29 and 15.64 and 15.11
Body Weight D7 ([1]; IMI + 0.05%, Day 7 (before treatment start on Day 8), individual animals): 15.51 and 15.49 (2×) and 18.30 and 17.72 and 17.41 and 15.14 and 16.24
Body Weight D8 ([1]; IMI + 0.05%, Day 8 (first day of treatment), individual animals): 15.82 and 15.39 and 18.05 and 17.68 and 16.64 and 14.96 and 16.14 and 14.67
Body Weight D9 ([1]; IMI + 0.05%, Day 9, individual animals): 15.95 and 14.96 and 17.53 and 16.98 and 15.65 and 14.35 and 14.99 and 14.71
Body Weight D10 ([1]; IMI + 0.05%, Day 10, individual animals): 15.11 and 14.48 and 17.43 and 16.38 and 15.37 and 14.04 and 14.71 and 14.32
Body Weight D11 ([1]; IMI + 0.05%, Day 11, individual animals): 15.27 and 14.85 and 17.41 and 16.38 and 15.58 and 13.84 and 14.92 and 14.21
Body Weight D12 ([1]; IMI + 0.05%, Day 12, individual animals): 14.64 and 14.74 and 17.02 and 15.95 and 15.45 and 13.69 and 15.73 and 14.31
Body Weight D13 ([1]; IMI + 0.05%, Day 13, individual animals): 14.45 and 14.82 and 16.74 and 15.71 and 15.24 and 13.39 and 14.65 and 14.05
Body Weight D14 ([1]; IMI + 0.05%, Day 14, individual animals): 14.55 and 14.89 and 16.65 and 15.49 and 15.08 and 13.55 and 14.66 and 14.04
Body Weight D15 ([1]; IMI + 0.05%, Day 15, individual animals): 14.30 and 14.75 and 16.22 and 15.41 and 14.99 and 13.32 and 14.54 and 14.22
MBWC D1-D8 ([1]; IMI + 0.05%, body weight change Day 1 to Day 8 (before treatment), individual animals): −1.25 and −2.13 and −1.26 and −0.89 and −2.08 and −1.60 and −1.50 and −2.10
MBWC D8-D15 ([1]; IMI + 0.05%, body weight change Day 8 to Day 15 (treatment period), individual animals): −1.52 and −0.64 and −1.83 and −2.27 and −1.65 and −1.64 and −1.60 and −0.45
PASI Scores ([1]; D8 (day treatment started), individual animals): 7 (5×) and 8 (3×)
PASI Scores ([1]; D9, individual animals): 6 (2×) and 4 (4×) and 5 (2×)
PASI Scores ([1]; D10, individual animals): 3 (5×) and 2 (2×) and 4
PASI Scores ([1]; D11, individual animals): 0 (5×) and 1 and 2 (2×)
PASI Scores ([1]; D12, individual animals): 1 (6×) and 0 (2×)
PASI Scores ([1]; D13, individual animals): 1 (3×) and 0 (5×)
PASI Scores ([1]; D14, individual animals): 0 (7×) and 1
PASI Scores ([1]; D15, individual animals): 0 (7×) and 1
Use Enrichment D1 ([1]; IMI-psoriasis model, D1, 0.05%, per cage (two animals)): 4.0
Use Enrichment D9 ([1]; IMI-psoriasis model, D9, 0.05%, per cage (two animals)): 2.0 and 1.5 and 1.0
Use Enrichment D10 ([1]; IMI-psoriasis model, D10, 0.05%, per cage (two animals)): 4.0 and 3.5 and 3.0
Use Enrichment D11 ([1]; IMI-psoriasis model, D11, 0.05%, per cage (two animals)): 4.0 and 3.0
Use Enrichment D13 ([1]; IMI-psoriasis model, D13, 0.05%, per cage (two animals)): 4.0 and 3.5
Use Enrichment D14 ([1]; IMI-psoriasis model, D14, 0.05%, per cage (two animals)): 4.0
Use Enrichment D15 ([1]; IMI-psoriasis model, D15, 0.05%, per cage (two animals)): 4.0
Number Licking [1, 2]: 1 (2×) and 2 (4×) and 5 (2×)
Number Licking + Scratching [1, 2]: 1 (2×) and 2 (4×) and 5 (2×)
Number Scratching [1, 2]: 0
Distance Traveled [1, 3]: 9 m (2×) and 5 m and 10 m (3×) and 15 m and 16 m
Number Rearings [1, 3]: 10 and 6 (2×) and 31 and 19 and 4 and 39 and 25
Use Enrichment Mean D1-D8 ([1]; IMI-psoriasis model, mean D1-D8, 0.05%, per cage (two animals)): 2.50 and 2.75 and 2.25
Use Enrichment Mean D8-D15 ([1]; IMI-psoriasis model, mean D8-D15, 0.05%, per cage (two animals)): 3.71 and 3.50 and 2.86 and 3.14
Spleen Weight [1, 4]: 39.92 and 30.38 and 50.46 and 44.29 and 37.25 and 36.61 and 35.08 and 34.69
Spleen Weight Ratio [1, 4]: 279.16 and 205.97 and 311.10 and 287.41 and 248.50 and 274.85 and 241.27 and 243.95
Mean scores of the presence of erythema on the skin of animals at the area of induction of psoriasis [1, 5]: 2.3 ± 0.2
Mean scores of the presence of induration on the skin of animals at the area of induction of psoriasis [1, 5]: 2.8 ± 0.2
Mean scores of the presence of peeling on the skin of animals at the area of induction of psoriasis [1, 5]: 2.4 ± 0.2
Mean scores of the presence of erythema on the skin of animals at the area of induction of psoriasis ([1]; IMI + 0.05%, D9): 1.8 ± 0.2
Mean scores of the presence of induration on the skin of animals at the area of induction of psoriasis ([1]; IMI + 0.05%, D9): 1.3 ± 0.2
Mean scores of the presence of peeling on the skin of animals at the area of induction of psoriasis ([1]; IMI + 0.05%, D9): 1.8 ± 0.3
Mean scores of the presence of erythema on the skin of animals at the area of induction of psoriasis ([1]; IMI + 0.05%, D10): 1.0 ± 0.2
Mean scores of the presence of induration on the skin of animals at the area of induction of psoriasis ([1]; IMI + 0.05%, D10): 1.0 ± 0.0
Mean scores of the presence of peeling on the skin of animals at the area of induction of psoriasis ([1]; IMI + 0.05%, D10): 0.9 ± 0.1
Mean scores of the presence of erythema on the skin of animals at the area of induction of psoriasis ([1]; IMI + 0.05%, D11): 0.3 ± 0.2
Mean scores of the presence of induration on the skin of animals at the area of induction of psoriasis ([1]; IMI + 0.05%, D11): 0.0 ± 0.0
Mean scores of the presence of peeling on the skin of animals at the area of induction of psoriasis ([1]; IMI + 0.05%, D11): 0.4 ± 0.2
Mean scores of the presence of erythema on the skin of animals at the area of induction of psoriasis ([1]; IMI + 0.05%, D12): 0.0 ± 0.0
Mean scores of the presence of induration on the skin of animals at the area of induction of psoriasis ([1]; IMI + 0.05%, D12): 0.0 ± 0.0
Mean scores of the presence of peeling on the skin of animals at the area of induction of psoriasis ([1]; IMI + 0.05%, D12): 0.8 ± 0.2
Mean scores of the presence of erythema on the skin of animals at the area of induction of psoriasis ([1]; IMI + 0.05%, D13): 0.0 ± 0.0
Mean scores of the presence of induration on the skin of animals at the area of induction of psoriasis ([1]; IMI + 0.05%, D13): 0.0 ± 0.0
Mean scores of the presence of peeling on the skin of animals at the area of induction of psoriasis ([1]; IMI + 0.05%, D13): 0.4 ± 0.2
Mean scores of the presence of erythema on the skin of animals at the area of induction of psoriasis ([1]; IMI + 0.05%, D14): 0.0 ± 0.0
Mean scores of the presence of induration on the skin of animals at the area of induction of psoriasis ([1]; IMI + 0.05%, D14): 0.0 ± 0.0
Mean scores of the presence of peeling on the skin of animals at the area of induction of psoriasis ([1]; IMI + 0.05%, D14): 0.1 ± 0.1
Mean scores of the presence of erythema on the skin of animals at the area of induction of psoriasis ([1]; IMI + 0.05%, D15): 0.0 ± 0.0
Mean scores of the presence of induration on the skin of animals at the area of induction of psoriasis ([1]; IMI + 0.05%, D15): 0.0 ± 0.0
Mean scores of the presence of peeling on the skin of animals at the area of induction of psoriasis ([1]; IMI + 0.05%, D15): 0.1 ± 0.1
Mean PASI Scores in IMI-Psoriasis Model ([1]; mice, IMI + 0.05%, D8 (before start of treatment)): 7.4 ± 0.2
Mean PASI Scores in IMI-Psoriasis Model ([1]; mice, IMI + 0.05%, D9): 4.8 ± 0.3
Mean PASI Scores in IMI-Psoriasis Model ([1]; mice, IMI + 0.05%, D10): 2.8 ± 0.2
Mean PASI Scores in IMI-Psoriasis Model ([1]; mice, IMI + 0.05%, D11): 0.6 ± 0.3
Mean PASI Scores in IMI-Psoriasis Model ([1]; mice, IMI + 0.05%, D12): 0.8 ± 0.2
Mean PASI Scores in IMI-Psoriasis Model ([1]; mice, IMI + 0.05%, D13): 0.4 ± 0.2
Mean PASI Scores in IMI-Psoriasis Model ([1]; mice, IMI + 0.05%, D14): 0.1 ± 0.1
Mean PASI Scores in IMI-Psoriasis Model ([1]; mice, IMI + 0.05%, D15): 0.1 ± 0.1
